One series has as its target T1, PDE10A (human) (Homo sapiens, UniProt Q9Y233).
T1 construct: purchased BPS Bioscience
In words: Measurement of PDE activity (HTRF cAMP kit), human PDE10A. Type of series: biochemical. Particulars: PDE enzymatic reaction, substrate 20 nM for PDE10, 60 minutes at 29 C. In outline:
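HTRF detection of cAMP left after hydrolysis, expressed as percent of uninhibited control to derive IC50. Reaction: serially diluted inhibitor mixed with recombinant enzyme, started with 20 nM cAMP, 60 min at 29 °C in Tris-HCl pH 7.5 buffer containing MgCl2 and BSA.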
For orientation: Time-resolved FRET reads energy transfer from a long-lived donor to a nearby acceptor.

Series [1] can be described thus: Determination of the microsomal half-life, rat liver microsomes. Particulars: rat, liver microsomes, pH 7.4. For orientation: Microsomes from liver hold many membrane-bound enzymes, among them those of drug oxidation.
The nature of series [2]: Determination of the microsomal half-life, human liver microsomes. Particulars: human, liver microsomes, pH 7.4.

The structures appear in SMILES notation. Where a name gives a salt, the structure may show the parent alone.

T1 sequence (Q9Y233 whole entry): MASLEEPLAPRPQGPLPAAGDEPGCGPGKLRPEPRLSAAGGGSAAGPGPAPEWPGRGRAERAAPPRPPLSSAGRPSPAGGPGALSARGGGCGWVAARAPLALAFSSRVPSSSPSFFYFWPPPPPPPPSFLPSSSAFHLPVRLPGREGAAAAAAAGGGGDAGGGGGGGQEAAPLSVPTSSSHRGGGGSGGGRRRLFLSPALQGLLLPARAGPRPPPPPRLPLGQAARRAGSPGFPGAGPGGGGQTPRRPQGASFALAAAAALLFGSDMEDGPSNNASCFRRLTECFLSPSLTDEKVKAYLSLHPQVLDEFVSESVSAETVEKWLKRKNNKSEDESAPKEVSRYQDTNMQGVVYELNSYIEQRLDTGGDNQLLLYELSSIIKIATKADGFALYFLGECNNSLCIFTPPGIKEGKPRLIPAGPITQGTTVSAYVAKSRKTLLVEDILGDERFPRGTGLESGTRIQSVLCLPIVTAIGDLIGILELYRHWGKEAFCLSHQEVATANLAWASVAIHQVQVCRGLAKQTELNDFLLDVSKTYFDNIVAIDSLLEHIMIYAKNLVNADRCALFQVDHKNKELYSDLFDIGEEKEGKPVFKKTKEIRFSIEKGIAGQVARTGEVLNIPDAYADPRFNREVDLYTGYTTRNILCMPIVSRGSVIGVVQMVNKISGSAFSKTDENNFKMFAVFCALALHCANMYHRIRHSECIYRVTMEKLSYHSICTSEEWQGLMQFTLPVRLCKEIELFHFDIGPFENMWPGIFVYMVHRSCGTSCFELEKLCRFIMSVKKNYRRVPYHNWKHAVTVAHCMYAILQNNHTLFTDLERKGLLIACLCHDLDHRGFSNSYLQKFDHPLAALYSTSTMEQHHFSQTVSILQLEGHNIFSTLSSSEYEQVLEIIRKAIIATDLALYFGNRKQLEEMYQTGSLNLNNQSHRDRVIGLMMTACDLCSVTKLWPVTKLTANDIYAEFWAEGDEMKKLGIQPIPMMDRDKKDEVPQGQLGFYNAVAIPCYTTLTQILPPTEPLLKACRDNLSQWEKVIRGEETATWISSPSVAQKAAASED

`O=C1c2c(OC3COC3)ccnc2CN1CCc1ccc2ccccc2n1` [compound 447, 4-(oxetan-3-yloxy)-6-[2-(2-quinolyl)ethyl]-7H-pyrrolo[3,4-b]pyridin-5-one]: the IC50 – broadly, the concentration needed to halve the response being measured – at PDE10A (human) is below 100 nM. The microsomal CLint at 0.5 μM in series [1] and in series [2] was 100 to 220 µL/min/mg throughout.
For `Cc1occc1-c1ccnc2c1C(=O)N(CCc1cn3ccccc3n1)C2` [compound 524, 6-(2-Imidazo[1,2-a]pyridin-2-ylethyl)-4-(2-methyl-3-furyl)-7H-pyrrolo[3,4-b]pyridin-5-one], the IC50 against PDE10A (human) lay in the range of 100 to 200 nM. Moreover, the results for the microsomal CLint at 0.5 μM in series [1] and in series [2] were above 220 µL/min/mg and 100 to 220 µL/min/mg, respectively.
Taken in the same sequence, the figures for `COc1ccc(N2CCS(=O)(=O)CC2)c2c1CN(CCc1ccc3ccccc3n1)C2=O` [Example 189, 7-(1,1-Dioxo-thiomorpholin-4-yl)-4-methoxy-2-(2-quinolin-2-yl-ethyl)-2,3-dihydro-isoindol-1-one] were below 100 nM, 100 to 220 µL/min/mg and 100 to 220 µL/min/mg.
Taken in the same sequence, the figures for `O=C1c2cccc(-c3ccncc3)c2CN1CCc1nc2ccccc2s1` [compound 431, 2-[2-(1,3-Benzothiazol-2-yl)ethyl]-4-(4-pyridyl)isoindolin-1-one] were 100 to 200 nM, above 220 µL/min/mg and below 100 µL/min/mg.
In turn, `[2H]C1([2H])OC([2H])([2H])C([2H])([2H])N(c2ccnc3c2C(=O)N(CCc2ccc4ccccc4n2)C3)C1([2H])[2H]` [compound 485, 4-(2,2,3,3,5,5,6,6-Octadeuteriomorpholin-4-yl)-6-[2-(2-quinolyl)ethyl]-7H-pyrrolo[3,4-b]pyridin-5-one] registered an IC50 on PDE10A (human) below 100 nM. The microsomal CLint at 0.5 μM in series [1] and in series [2] was 100 to 220 µL/min/mg in each case.
As to `Cc1ccc(CCN2Cc3nccc(N4CCOCC4)c3C2=O)nc1C` [compound 554, 6-[2-(5,6-Dimethyl-2-pyridyl)ethyl]-4-morpholino-7H-pyrrolo[3,4-b]pyridin-5-one], the IC50 on PDE10A (human) was below 100 nM. Besides, the microsomal CLint at 0.5 μM in series [1] and in series [2] was 100 to 220 µL/min/mg throughout.
With `Cc1ncc(-c2ccnc3c2C(=O)N(CCc2nc4ccccc4s2)C3)cn1` [compound 445, 6-[2-(1,3-Benzothiazol-2-yl)ethyl]-4-(2-methylpyrimidin-5-yl)-7H-pyrrolo[3,4-b]pyridin-5-one], at PDE10A (human), the IC50 lay within 100 to 200 nM. The intrinsic clearance (microsomal CLint) at 0.5 μM in series [1] and in series [2] was below 100 µL/min/mg in each case.
In turn, `O=C1c2c(cccc2NC2CCS(=O)(=O)C2)CN1CCc1ccc2ccccc2n1` (stereo not drawn) [Example 190, 7-(1,1-Dioxo-tetrahydro-thiophen-3-ylamino)-2-(2-quinolin-2-yl-ethyl)-2,3-dihydro-isoindol-1-one] showed an IC50 against PDE10A (human) of 100 to 200 nM. Moreover, the microsomal CLint at 0.5 μM in series [1] and in series [2] was 100 to 220 µL/min/mg throughout.
At PDE10A (human), `O=C1c2c(cccc2N2CCOCC2)CN1CCc1cnc2ccccc2n1` [compound 482, 7-Morpholino-2-(2-quinoxalin-2-ylethyl)isoindolin-1-one] returned an IC50 of 100 to 200 nM. The microsomal CLint at 0.5 μM in series [1] and in series [2] was below 100 µL/min/mg throughout.
On PDE10A (human), `O=C1c2cccc(-c3ccncc3)c2CN1CCc1cn2ccccc2n1` [Example 316, 2-(2-Imidazo[1,2-a]pyridin-2-yl-ethyl)-4-pyridin-4-yl-2,3-dihydro-isoindol-1-one] gave an IC50 below 100 nM. For the same molecule, the microsomal CLint – broadly, the capacity of the preparation to metabolise the compound, expressed as a volume cleared per time – at 0.5 μM is 100 to 220 µL/min/mg in series [1] and below 100 µL/min/mg in series [2].
As to `O=C1c2c(-c3ccncc3)ccnc2CN1CCc1cn2ccccc2n1` [Example 369, 6-(2-Imidazo[1,2-a]pyridin-2-yl-ethyl)-4-pyridin-4-yl-6,7-dihydro-pyrrolo[3,4-b]pyridin-5-one], at PDE10A (human), the IC50 was below 100 nM. Also, the microsomal CLint at 0.5 μM in series [1] and in series [2] was below 100 µL/min/mg in each case.
For the molecule `O=C1c2c(-c3cccnc3)ccnc2CN1CCc1ccc2ccccc2n1` [Example 329, 4-Pyridin-3-yl-6-(2-quinolin-2-yl-ethyl)-6,7-dihydro-pyrrolo[3,4-b]pyridin-5-one], the IC50 at PDE10A (human) is below 100 nM. Further, the microsomal CLint at 0.5 μM in series [1] and in series [2] was 100 to 220 µL/min/mg in each case.
The molecule `Cc1ccc2ccc(CCN3Cc4nccc(-c5ccncc5)c4C3=O)nc2c1` [compound 394, 6-[2-(7-Methyl-2-quinolyl)ethyl]-4-(4-pyridyl)-7H-pyrrolo[3,4-b]pyridin-5-one trifluoroacetate] had an IC50 against PDE10A (human) below 100 nM. The microsomal CLint at 0.5 μM in series [1] is above 220 µL/min/mg; in series [2], below 100 µL/min/mg.
Taken in the same sequence, the figures for `CC(C)c1ccc(CCN2Cc3nccc(-c4ccncc4)c3C2=O)nc1` [compound 398, 6-[2-(5-Isopropyl-2-pyridyl)ethyl]-4-(4-pyridyl)-7H-pyrrolo[3,4-b]pyridin-5-one] were below 100 nM, above 220 µL/min/mg and 100 to 220 µL/min/mg.
In the same order, the values of `O=C(O)C1CCN(c2ccnc3c2C(=O)N(CCc2ccc4ccccc4n2)C3)CC1` [Example 366, 1-[5-Oxo-6-(2-quinolin-2-yl-ethyl)-6,7-dihydro-5H-pyrrolo[3,4-b]pyridin-4-yl]-piperidine-4-carboxylic acid] are 100 to 200 nM, below 100 µL/min/mg and below 100 µL/min/mg.
In the same order, the values of `O=C1c2c(N3CCOCC3)ccnc2CN1CCc1nc2ccc(F)cc2s1` [compound 405, 6-[2-(6-Fluoro-1,3-benzothiazol-2-yl)ethyl]-4-morpholino-7H-pyrrolo[3,4-b]pyridin-5-one] are below 100 nM, 100 to 220 µL/min/mg and above 220 µL/min/mg.
At PDE10A (human), `COc1ccc(-c2ccnn2C)c2c1C(=O)N(CCc1cn3ccccc3n1)C2` [compound 464, 2-(2-Imidazo[1,2-a]pyridin-2-yl-ethyl)-7-methoxy-4-(2-methyl-2H-pyrazol-3-yl)-2,3-dihydro-isoindol-1-one trifluoroacetate] registered an IC50 below 100 nM. Further, the microsomal CLint at 0.5 μM in series [1] and in series [2] was below 100 µL/min/mg each time.
The molecule `O=C1c2nccc(-c3cncnc3)c2CN1CCc1ccc2ccccc2n1` [compound 467, 4-Pyrimidin-5-yl-6-[2-(2-quinolyl)ethyl]-5H-pyrrolo[3,4-b]pyridin-7-one] had an IC50 at PDE10A (human) of 100 to 200 nM. For the same molecule, the microsomal CLint at 0.5 μM in series [1] and in series [2] was below 100 µL/min/mg throughout.
`O=C1c2cccc(-c3cc[nH]n3)c2CN1CCc1cn2ccccc2n1` [Example 314, 2-(2-Imidazo[1,2-a]pyridin-2-yl-ethyl)-4-(1H-pyrazol-3-yl)-2,3-dihydro-isoindol-1-one trifluoroacetate] came in with an IC50 against PDE10A (human) below 100 nM. For the same molecule, the microsomal CLint at 0.5 μM in series [1] and in series [2] was below 100 µL/min/mg in each case.
For `O=C1c2c(cccc2NC2CNC2)CN1CCc1ccc2ccccc2n1` [Example 145, 7-(Azetidin-3-ylamino)-2-(2-quinolin-2-yl-ethyl)-2,3-dihydro-isoindol-1-one], the IC50 against PDE10A (human) lay in the range of 200 to 500 nM. In addition, the microsomal CLint at 0.5 μM in series [1] and in series [2] was below 100 µL/min/mg in each case.
Regarding `O=C1c2c(N3CCC(O)CC3)ccnc2CN1CCc1ccc2ccccc2n1` [compound 530, 4-(4-Hydroxy-piperidin-1-yl)-6-(2-quinolin-2-yl-ethyl)-6,7-dihydro-pyrrolo[3,4-b]pyridin-5-one trifluoroacetate], the IC50 against PDE10A (human) was below 100 nM. Moreover, the microsomal CLint at 0.5 μM in series [1] was 100 to 220 µL/min/mg; in series [2], below 100 µL/min/mg.
In turn, `Cn1cnc2ccc(-c3cccc4c3C(=O)N(CCc3ccc5ccccc5n3)C4)cc21` [Example 8, 7-(3-Methyl-3H-benzoimidazol-5-yl)-2-(2-quinolin-2-yl-ethyl)-2,3-dihydro-isoindol-1-one trifluoroacetate] displayed an IC50 at PDE10A (human) of 200 to 500 nM. Besides, the microsomal CLint at 0.5 μM is 100 to 220 µL/min/mg in series [1] and above 220 µL/min/mg in series [2].
Turning to `O=C1c2c(C3CCOCC3)ccnc2CN1CCc1ccc2ccccc2n1` [Example 297, 6-(2-Quinolin-2-yl-ethyl)-4-(tetrahydro-pyran-4-yl)-6,7-dihydro-pyrrolo[3,4-b]pyridin-5-one], the IC50 against PDE10A (human) is below 100 nM. In addition, the microsomal CLint at 0.5 μM in series [1] and in series [2] was 100 to 220 µL/min/mg each time.
As for `Cc1cc(-c2ccnc3c2C(=O)N(CCc2ccc4ccccc4n2)C3)n(C)n1` [Example 334, 4-(2,5-Dimethyl-2H-pyrazol-3-yl)-6-(2-quinolin-2-yl-ethyl)-6,7-dihydro-pyrrolo[3,4-b]pyridin-5-one], on PDE10A (human), the IC50 was 100 to 200 nM. Further, the microsomal CLint at 0.5 μM in series [1] and in series [2] was below 100 µL/min/mg each time.
Regarding `O=C1c2c(N3CCOCC3)ccnc2CN1CCc1ccc(-c2ccccc2)cn1` [compound 486, 4-Morpholino-6-[2-(5-phenyl-2-pyridyl)ethyl]-7H-pyrrolo[3,4-b]pyridin-5-one], the IC50 against PDE10A (human) is below 100 nM. For the same molecule, the figures for the microsomal CLint at 0.5 μM in series [1] and in series [2] were above 220 µL/min/mg and 100 to 220 µL/min/mg, respectively.
Taken in the same sequence, the figures for `Cn1c(CCN2Cc3cccc(-c4ccncc4)c3C2=O)nc2ccccc21` [Example 195, 2-[2-(1-Methyl-1H-benzoimidazol-2-yl)-ethyl]-7-pyridin-4-yl-2,3-dihydro-isoindol-1-one] were below 100 nM, 100 to 220 µL/min/mg and above 220 µL/min/mg.
Consider `O=C1c2cccc(-c3cc[nH]n3)c2CN1CCc1nc2ccccc2s1` [compound 428, 2-[2-(1,3-Benzothiazol-2-yl)ethyl]-4-(1H-pyrazol-3-yl)isoindolin-1-one], for which, at PDE10A (human), the IC50 was below 100 nM. Also, the microsomal CLint at 0.5 μM in series [1] is above 220 µL/min/mg; in series [2], 100 to 220 µL/min/mg.

For the origin of these results see patent US9938269B2, “Inhibitor compounds of phosphodiesterase type 10A” (ABBVIE INC., priority 2011, dated 2018).
